# Test results as given in patent US12358886B2, “Heterocyclic compounds for use in the treatment of cancer” (Artios Pharma Limited, priority 2019, dated 2025).
# pIC50: −log10 of the molar value. Like-named read-outs stand apart in the source and are kept apart here.
# Biological target: Polθ protein (amino acids 2-2590) (Homo sapiens, UniProt O75417)
# Test: Polθ full length enzyme potency assay (PicoGreen)
# Details: full length N-His, C-term FLAG tagged Polθ, PicoGreen fluorescence, 12 point concentration response; for IC50: Polθ IC50 (nM); for pIC50: read-out: Polθ IC50
# Description: Polθ Full Length Enzyme Potency Assay
# PicoGreen assay was used to measure the ability of compounds to inhibit the activity of Polθ in vitro. […] DMSO concentration was maintained at 1% by back filling with DMSO solution. […] This was dispensed into each well of the compound plate using a VIAFLO 16 channel manual pipette (Integra) and pre-incubated at rt for 30 min. 3 μL of 2× working solution of dNTPs (40 μM) (dATP, dCTP, dGTP, dTTP; Sigma D6500, D4635, D4010, T0251) diluted in assay buffer was then added and the reaction incubated for 60 min at rt. The reaction was stopped by addition of 10 mM EDTA, 25 mM Tris pH 7.5 and 1:200 dilution of PicoGreen dye (Invitrogen P7581).
# Chain of Polθ protein (amino acids 2-2590) (O75417 2-2590): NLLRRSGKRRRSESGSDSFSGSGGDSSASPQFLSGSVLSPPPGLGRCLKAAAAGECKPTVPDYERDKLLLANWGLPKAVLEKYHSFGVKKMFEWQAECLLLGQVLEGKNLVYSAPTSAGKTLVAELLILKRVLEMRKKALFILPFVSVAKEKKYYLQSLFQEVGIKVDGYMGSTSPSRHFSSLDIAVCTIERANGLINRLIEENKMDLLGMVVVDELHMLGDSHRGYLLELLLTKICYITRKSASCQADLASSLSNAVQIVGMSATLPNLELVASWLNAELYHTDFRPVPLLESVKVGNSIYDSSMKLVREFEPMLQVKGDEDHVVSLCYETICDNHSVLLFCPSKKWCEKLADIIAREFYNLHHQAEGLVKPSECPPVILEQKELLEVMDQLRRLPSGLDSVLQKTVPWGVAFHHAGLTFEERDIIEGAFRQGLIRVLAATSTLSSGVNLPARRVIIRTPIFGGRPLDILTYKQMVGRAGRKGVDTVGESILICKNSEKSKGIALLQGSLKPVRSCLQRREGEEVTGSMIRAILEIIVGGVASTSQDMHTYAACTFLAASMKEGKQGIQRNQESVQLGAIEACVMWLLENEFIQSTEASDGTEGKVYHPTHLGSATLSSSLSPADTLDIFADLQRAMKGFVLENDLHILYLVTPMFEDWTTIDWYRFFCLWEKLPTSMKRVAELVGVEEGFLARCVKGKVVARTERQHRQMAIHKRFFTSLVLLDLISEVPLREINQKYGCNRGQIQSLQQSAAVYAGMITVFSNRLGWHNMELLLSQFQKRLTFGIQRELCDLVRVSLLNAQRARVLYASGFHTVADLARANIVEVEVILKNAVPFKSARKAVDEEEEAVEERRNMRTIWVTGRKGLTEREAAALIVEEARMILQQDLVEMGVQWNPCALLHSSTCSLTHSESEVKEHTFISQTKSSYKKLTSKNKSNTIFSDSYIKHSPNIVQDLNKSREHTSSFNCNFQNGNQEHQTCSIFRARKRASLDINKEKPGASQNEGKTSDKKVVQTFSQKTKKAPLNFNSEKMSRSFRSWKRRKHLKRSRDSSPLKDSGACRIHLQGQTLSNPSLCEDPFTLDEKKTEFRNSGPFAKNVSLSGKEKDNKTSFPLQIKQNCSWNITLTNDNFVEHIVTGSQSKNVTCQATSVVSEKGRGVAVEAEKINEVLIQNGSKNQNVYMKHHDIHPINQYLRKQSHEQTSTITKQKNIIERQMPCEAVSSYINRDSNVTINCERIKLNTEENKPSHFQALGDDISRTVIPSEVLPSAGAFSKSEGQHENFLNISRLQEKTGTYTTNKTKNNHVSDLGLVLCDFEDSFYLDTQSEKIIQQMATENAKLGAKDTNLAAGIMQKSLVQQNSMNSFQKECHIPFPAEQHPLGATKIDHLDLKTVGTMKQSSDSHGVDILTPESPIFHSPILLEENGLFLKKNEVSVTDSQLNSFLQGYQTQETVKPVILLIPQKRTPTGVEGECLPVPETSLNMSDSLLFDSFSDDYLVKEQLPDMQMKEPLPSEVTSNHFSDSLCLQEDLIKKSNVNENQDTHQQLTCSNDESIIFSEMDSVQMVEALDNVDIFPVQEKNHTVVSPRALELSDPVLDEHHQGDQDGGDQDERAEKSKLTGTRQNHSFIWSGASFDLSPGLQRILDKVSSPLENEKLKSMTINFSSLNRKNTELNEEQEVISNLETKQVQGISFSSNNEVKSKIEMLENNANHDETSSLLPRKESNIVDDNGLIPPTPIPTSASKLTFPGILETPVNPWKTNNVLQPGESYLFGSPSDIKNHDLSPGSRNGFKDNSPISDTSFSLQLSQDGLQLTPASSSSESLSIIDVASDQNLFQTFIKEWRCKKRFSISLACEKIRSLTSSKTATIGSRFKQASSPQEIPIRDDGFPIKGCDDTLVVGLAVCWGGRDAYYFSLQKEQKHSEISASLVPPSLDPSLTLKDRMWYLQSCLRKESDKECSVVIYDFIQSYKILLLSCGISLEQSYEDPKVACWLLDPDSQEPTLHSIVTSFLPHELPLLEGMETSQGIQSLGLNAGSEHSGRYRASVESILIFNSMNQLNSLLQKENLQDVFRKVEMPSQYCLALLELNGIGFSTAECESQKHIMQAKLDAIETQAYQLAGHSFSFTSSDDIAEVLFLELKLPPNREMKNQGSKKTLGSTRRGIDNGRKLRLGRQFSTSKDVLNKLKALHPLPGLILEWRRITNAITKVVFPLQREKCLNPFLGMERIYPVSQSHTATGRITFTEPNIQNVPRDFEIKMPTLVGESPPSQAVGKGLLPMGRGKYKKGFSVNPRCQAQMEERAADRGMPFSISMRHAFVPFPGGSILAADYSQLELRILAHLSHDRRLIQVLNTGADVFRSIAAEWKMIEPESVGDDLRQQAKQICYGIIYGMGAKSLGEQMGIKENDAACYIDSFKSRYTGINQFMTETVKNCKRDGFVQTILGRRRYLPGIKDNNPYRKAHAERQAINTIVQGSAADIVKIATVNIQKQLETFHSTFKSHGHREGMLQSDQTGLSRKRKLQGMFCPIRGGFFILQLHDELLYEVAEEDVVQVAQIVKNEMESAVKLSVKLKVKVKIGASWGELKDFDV
IC50 [nM],pIC50,Structure (SMILES)
11,,"Cc1cc(C(F)(F)F)cc(N2C(=O)N(CCCN3CCNCC3)C[C@H]2C(=O)N(C)c2ccc(F)c(Cl)c2F)n1 [Example 220, (S)—N-(3-Chloro-2,4-difluorophenyl)-N-methyl-3-(6-methyl-4-(trifluoromethyl)pyridin-2-yl)-2-oxo-1-(3-(piperazin-1-yl)propyl)imidazolidine-4-carboxamide]"
28,,"Cc1cc(C(F)(F)F)cc(N2C(=O)N(CCN3CCCC3CO)C[C@H]2C(=O)N(C)c2ccc(F)c(Cl)c2)n1 (single isomer, unassigned; isomer 1) [Example 198]"
5,,"Cc1cc(C(F)(F)F)cc(N2C(=O)N(CCN3CCC(C#N)CC3)C[C@H]2C(=O)N(C)c2ccc(F)c(Cl)c2F)n1 [Example 211, (S)-N-(3-Chloro-2,4-difluorophenyl)-1-(2-(4-cyanopiperidin-1-yl)ethyl)-N-methyl-3-(6-methyl-4-(trifluoromethyl)pyridin-2-yl)-2-oxoimidazolidine-4-carboxamide]"
4,,"Cc1cc(C(F)(F)F)cc(N2C(=O)N(CCN3CCOCC3)C[C@H]2C(=O)N(C)c2ccc(F)c(Cl)c2F)n1 [Example 195, (S)-N-(3-Chloro-2,4difluorophenyl)-N-methyl-3-(6-methyl-4-(trifluoromethyl)pyridin-2-yl)-1-(2-morpholinoethyl)-2-oxoimidazolidine-4-carboxamide]"
24,,"Cc1cc(C(F)(F)F)cc(N2C(=O)N(CCN3CC[C@H](O)C3)C[C@H]2C(=O)N(C)c2ccc(F)c(Cl)c2)n1 [Example 196, (S)-N-(3-Chloro-4-fluorophenyl)-1-(2-((S)-3-hydroxypyrrolidin-1-yl)ethyl)-N-methyl-3-(6-methyl-4-(trifluoromethyl)pyridin-2-yl)-2-oxoimidazolidine-4-carboxamide]"
311,,"Cc1cc(C(F)(F)F)c(C#N)c(N2[C@@H](C)CC[C@H]2C(=O)N(C)c2ccc(F)c(Cl)c2)n1 [Example 242, (2S,5S)—N-(3-Chloro-4-fluorophenyl)-1-(3-cyano-6-methyl-4-(trifluoromethyl)pyridin-2-yl)-N,5-dimethylpyrrolidine-2-carboxamide]"
15,,"Cc1cc(C(F)(F)F)cc(N2C(=O)NC[C@H]2C(=O)N(c2ccc(F)c(Cl)c2)C(C)C)n1 [Example 179, (S)—N-(3-Chloro-4-fluorophenyl)-N-isopropyl-3-(6-methyl-4-(trifluoromethyl)pyridin-2-yl)-2-oxoimidazolidine-4-carboxamide]"
61,,"Cc1cc(C(F)(F)F)cc(N2C(=O)N(CCN(C)C)C[C@H]2C(=O)N(C)c2ccc(F)c(Cl)c2)n1 [Example 182, (S)-N-(3-Chloro-4-fluorophenyl)-1-(2-(dimethylamino)ethyl)-N-methyl-3-(6-methyl-4-(trifluoromethyl)pyridin-2-yl)-2-oxoimidazolidine-4-carboxamide]"
39,,"Cc1cc(C(F)(F)F)c(C#N)c(N2CCC[C@H]2C(=O)N(C)c2ccc3ccn(C)c3n2)n1 [Example 243, (S)-1-(3-Cyano-6-methyl-4-(trifluoromethyl)pyridin-2-yl)-N-methyl-N-(1-methyl-1H-pyrrolo[2,3-b]pyridin-6-yl)pyrrolidine-2-carboxamide]"
519,,"Cc1cc(C(F)(F)F)cc(N2C(=O)OC[C@H]2C(=O)N(C)c2cccc(N)n2)n1 [Example 175, (S)—N-(6-Aminopyridin-2-yl)-N-methyl-3-(6-methyl-4-(trifluoromethyl)pyridin-2-yl)-2-oxooxazolidine-4-carboxamide]"

# The remaining lines, values behind:
Structure (SMILES),IC50 [nM],pIC50
"Cc1cc(C(F)(F)F)c(C#N)c(N2C[C@@H](O)C[C@H]2C(=O)N(C)c2ccc(F)c(Cl)c2)n1 [Example 5, (2S,4S)—N-(3-Chloro-4-fluorophenyl)-1-(3-cyano-6-methyl-4-(trifluoro-methyl)pyridin-2-yl)-4-hydroxy-N-methylpyrrolidine-2-carboxamide]",,7.80
"Cc1cc(Br)cc(N2C(=O)OC[C@H]2C(=O)N(C)c2ccc(F)c(Cl)c2)n1 [Example 116, (S)-3-(4-Bromo-6-methylpyridin-2-yl)-N-(3-chloro-4-fluorophenyl)-N-methyl-2-oxooxazolidine-4-carboxamide]",71,
"Cc1cc(C(F)(F)F)cc(N2C(=O)OC[C@H]2C(=O)N(C)c2ccc(F)c(Cl)c2F)n1 [Example 85, (S)—N-(3-Chloro-2,4-difluorophenyl)-N-methyl-3-(6-methyl-4-(trifluoromethyl)pyridin-2-yl)-2-oxooxazolidine-4-carboxamide]",5,
"Cc1cccc(N(C)C(=O)[C@@H]2C[C@H](O)CN2c2cc(C(C)C)cc(C)n2)c1 [Example 28, (2S,4S)-4-Hydroxy-1-(4-isopropyl-6-methylpyridin-2-yl)-N-methyl-N-(m-tolyl)pyrrolidine-2-carboxamide]",48,
"Cc1cc(OC(F)F)cc(N2C(=O)OC[C@H]2C(=O)N(C)c2ccc(F)c(Cl)c2)n1 [Example 121, (S)—N-(3-Chloro-4-fluorophenyl)-3-(4-(difluoromethoxy)-6-methylpyridin-2-yl)-N-methyl-2-oxooxazolidine-4-carboxamide]",167,
"Cc1cc(C(F)(F)F)cc(N2C(=O)OC[C@H]2C(=O)N(C)c2ccc(Cl)cc2F)n1 [Example 97, (S)-N-(4-Chloro-2-fluorophenyl)-N-methyl-3-(6-methyl-4-(trifluoromethyl)pyridin-2-yl)-2-oxooxazolidine-4-carboxamide]",11,
"Cc1cc(C)c(C#N)c(N2C[C@@H](O)C[C@H]2C(=O)N(C)c2cccc(C(F)F)c2)n1 [Example 12, (2S,4S)-1-(3-Cyano-4,6-dimethylpyridin-2-yl)-N-(3-(difluoromethyl)phenyl)-4-hydroxy-N-methylpyrrolidine-2-carboxamide]",710,
"CCN(C(=O)[C@@H]1COC(=O)N1c1cc(C(C)(F)F)cc(C)n1)c1ccc(F)c(Cl)c1 [Example 125, (S)—N-(3-Chloro-4-fluorophenyl)-3-(4-(1,1-difluoroethyl)-6-methylpyridin-2-yl)-N-ethyl-2-oxooxazolidine-4-carboxamide]",261,
"CCN(C(=O)[C@@H]1C[C@H](N2CCOC(CO)C2)CN1c1nc(C)cc(C(F)(F)F)c1C#N)c1cccc(Cl)c1 (stereo partly drawn) [Example 147, (2S,4S)-N-(3-Chlorophenyl)-1-(3-cyano-6-methyl-4-(trifluoromethyl)pyridin-2-yl)-N-ethyl-4-(2-(hydroxymethyl)morpholino)pyrrolidine-2-carboxamide]",28,
"Cc1cc(C(F)(F)F)cc(N2C(=O)OC[C@H]2C(=O)N(C)c2cc(Cl)ccc2F)n1 [Example 96, (S)-N-(5-Chloro-2-fluorophenyl)-N-methyl-3-(6-methyl-4-(trifluoromethyl)pyridin-2-yl)-2-oxooxazolidine-4-carboxamide]",,7.62
"Cc1cc(C(F)(F)F)cc(N2C(=O)N(S(C)(=O)=O)C[C@H]2C(=O)N(C)c2ccc(F)c(Cl)c2)n1 [Example 159, (S)—N-(3-Chloro-4-fluorophenyl)-N-methyl-3-(6-methyl-4-(trifluoromethyl)pyridin-2-yl)-1-(methylsulfonyl)-2-oxoimidazolidine-4-carboxamide]",178,
"CCN(C(=O)[C@@H]1C[C@H](N[C@H]2CN(C(=O)OC(C)(C)C)C[C@H]2O)CN1c1cc(C(F)(F)F)cc(C)n1)c1ccc(F)c(F)c1 [Example 136, tert-Butyl (3S,4R)-3-(((3S,5S)-5-((3,4-difluorophenyl)(ethyl)carbamoyl)-1-(6-methyl-4-(trifluoromethyl)pyridin-2-yl)pyrrolidin-3-yl)amino)-4-hydroxypyrrolidine-1-carboxylate]",45,
"CCN(C(=O)[C@@H]1C[C@H](NC2COC2)CN1c1cc(C(F)(F)F)cc(C)n1)c1ccc(F)c(F)c1 [Example 138, (2S,4S)-N-(3,4-Difluorophenyl)-N-ethyl-1-(6-methyl-4-(trifluoromethyl)pyridin-2-yl)-4-(oxetan-3-ylamino)pyrrolidine-2-carboxamide]",165,
"CCN(C(=O)[C@@H]1C[C@H](N[C@@H]2COCC[C@H]2O)CN1c1cc(C(F)(F)F)cc(C)n1)c1ccc(F)c(F)c1 [Example 132, (2S,4S)-N-(3,4-Difluorophenyl)-N-ethyl-4-(((3R,4R)-4-hydroxytetrahydro-2H-pyran-3-yl)amino)-1-(6-methyl-4-(trifluoromethyl)pyridin-2-yl)pyrrolidine-2-carboxamide]",156,
"Cc1cc(C(F)(F)F)c(C#N)c(N2C[C@@H](N3CCOC(CO)C3)C[C@H]2C(=O)N(C)c2ccc(F)c(Cl)c2)n1 (stereo partly drawn) [Example 151, (2S,4S)-N-(3-Chloro-4-fluorophenyl)-1-(3-cyano-6-methyl-4-(trifluoromethyl)pyridin-2-yl)-4-(2-(hydroxymethyl)morpholino)-N-methylpyrrolidine-2-carboxamide]",23,
"CCN(C(=O)[C@@H]1C[C@H](N)C(=O)N1c1cc(C(F)(F)F)cc(C)n1)c1ccc(F)c(Cl)c1 [Example 61, (2S,4S)-4-Amino-N-(3-chloro-4-fluorophenyl)-N-ethyl-1-(6-methyl-4-(trifluoromethyl)pyridin-2-yl)-5-oxopyrrolidine-2-carboxamide]",136,
"Cc1cccc(N(C)C(=O)[C@@H]2C[C@H](O)CN2c2cc(C)c(Cl)c(C)n2)c1 [Example 29, (2S,4S)-1-(5-Chloro-4,6-dimethylpyridin-2-yl)-4-hydroxy-N-methyl-N-(m-tolyl)pyrrolidine-2-carboxamide]",172,
"C=Cc1cc(N(C)C(=O)[C@@H]2COC(=O)N2c2cc(C(F)(F)F)cc(C)n2)ccc1F [Example 109, (S)—N-(4-Fluoro-3-vinylphenyl)-N-methyl-3-(6-methyl-4-(trifluoromethyl)pyridin-2-yl)-2-oxooxazolidine-4-carboxamide]",49,
"Cc1cc(C(F)(F)F)cc(N2C(=O)OC[C@H]2C(=O)N(C)c2cccc(Cl)c2F)n1 [Example 95, (S)-N-(3-Chloro-2-fluorophenyl)-N-methyl-3-(6-methyl-4-(trifluoromethyl)pyridin-2-yl)-2-oxooxazolidine-4-carboxamide]",,7.82
